Test results as given in patent US5481013A, “Carboxylic acid derivatives” (Ciba-Geigy Corporation, priority 1992, dated 1996).

Columns and labels:
Format in all cases: in vivo
adult Anthonomus grandis = assay: Activity against adult Anthonomus grandis; conditions: 72 h, 400 ppm spray on young cotton plants, adults, evaluated after 3 days, read-out: percentage reduction in population or in feeding damage (% activity)
Experimental: Young cotton plants are sprayed with a spray mixture prepared with an aqueous emulsion and comprising 400 ppm of the active ingredient. After the spray coating has dried on, the cotton plants are populated with 10 adult Anthonomus grandis and placed into a plastic container. The test is evaluated after 3 days. The percentage reduction in population, or the percentage reduction in feeding damage (% activity), is determined by comparing the number of dead beetles and the feeding damage on the treated plants with those on the untreated plants.

Aphis craccivora = assay: Activity against Aphis craccivora; conditions: 400 ppm spray on pea seedlings, 20° C., evaluated after 3 and 6 days, read-out: percentage reduction in population (% activity)
Experimental: Pea seedlings are infected with Aphis craccivora, subsequently sprayed with a spray mixture comprising 400 ppm of the active ingredient, and incubated at 20° C. The test is evaluated after 3 and 6 days. The percentage reduction in population (% activity) is determined by comparing the number of dead aphids on the treated plants with those on the untreated plants.

[1] = test system: Crocidolomia binotalis caterpillars; assay: Activity against Crocidolomia binotalis caterpillars; conditions: Brassica oleracea, 72 h; 400 ppm spray on young cabbage plants, third larval stage, evaluated after 3 days; read-out: percentage reduction in population or in feeding damage (% activity)
Experimental: Young cabbage plants are sprayed with a spray mixture prepared with an aqueous emulsion and comprising 400 ppm of the active ingredient. After the spray coating has dried on, the cabbage plants are infested with 10 Crocidolomia binotalis in the third larval stage and placed into a plastic container. The test is evaluated after 3 days. The percentage reduction in population, or the percentage reduction in feeding damage (% activity), is determined by comparing the number of dead caterpillars and the feeding damage on the treated plants with those on the untreated plants.

Nephotettix cincticeps = assay: Activity against Nephotettix cincticeps (spray on rice plants); conditions: 504 h, 400 ppm spray on rice plants, larvae in stages 2 and 3, evaluated 21 days later, read-out: percentage reduction in population (% activity)
Experimental: Rice plants are treated with a spray mixture prepared with an aqueous emulsion and comprising 400 ppm of the active ingredient. After the spray coating has dried on, the rice plants are populated with leaf hopper larvae in stages 2 and 3. The test is evaluated 21 days later. The percentage reduction in population (% activity) is determined by comparing the number of surviving leaf hoppers on the treated plants with those on the untreated plants.

[2] = test system: Panonychus ulmi (OP- and carb.- resistant); assay: Activity against Panonychus ulmi (OP- and carb.- resistant); conditions: 336 h, 400 ppm spray on apple seedlings, evaluated after 14 days, read-out: percentage reduction in population (% activity)
Experimental: Apple seedlings are populated with adult females of Panonychus ulmi. After seven days, the infested plants are sprayed to drip point with an aqueous emulsion comprising 400 ppm of the test compound and grown in the greenhouse. The test is evaluated after 14 days. The percentage reduction in population (% activity) is determined by comparing the number of dead spider mites on the treated plants with those on the untreated plants. […] An activity of over 80% is shown, in particular, by compound Nos. 1.01, 2.01, 2.07, 2.08, 2.10, 2.12 to 2.16, 2.22, 2.23, 2.26, 3.01, 4.01, 4.02, 4.06, 5.01 to 5.03, 5.05, 5.06, 5.08, 5.10, 5.11, 5.15, 5.16 and 5.20 to 5.25.

Measured: activity at 400 ppm

O=C(CCCCCCCCCC=C(F)F)OCCOc1ccc(OCc2ccccc2)cc1 [Compound 5.05]
> 80%: all assays above
